Results reported in patent US5002963A, “3-indolepyruvic acid derivatives and pharmaceutical use thereof” (priority 1987, dated 1991).

Key:
Stability = assay type: physicochemical
kynurenic acid [1] = assay: Test 3: effect on the content of kynurenic acid after administration of IPA in rat; assay type: in vivo; details: for increase in the levels of kynurenic acid in the tissues (in words): rat, in vivo
Text: (§1) For the measurement of such levels after administration of 3-indolepyruvic acid or a derivative thereof, a system was set up based on ultraviolet detection of the compounds separated by high pressure liquid chromatography.
(§2) Briefly, after sacrific of the animal, some of the principal organs were taken and homogenized with alkaline ethanol. Proteins and cell remains were removed by centrifugation, whilst the over natant was adsorbed on Bio-Rad AG 1×8 resin. After washing with water it was eluted with formic acid. It was then passed on Bio-Rad AG 50W-×8 resin, eluted with 3% ammonia, dried and retaken with a small amount of water.
(§3) The sample thus obtained was injected into a Waters apparatus for high pressure liquid chromatography, using a C18 10 micron column and eluting with 0,02 m citric acid containing 10% of methanol. The kynurenic acid levels were extrapolated by the calibration line of the acid and reading at 234 nm.
Male rats were treated with saline solution (controls) or with various doses of IPA, which was injected 3 hours before sacrifice. Each lot comprised 10 animals.
The results are reported in picomoles/g of tissue (or ml of blood)±standard error.

kynurenic acid [2] = assay: Test 5: time course of the kynurenic acid levels after administration of IPA; assay type: in vivo, rats; details: 250 mg/Kg i.p.; for kynurenic acid level, Brain / kynurenic acid level, Heart / kynurenic acid level, Kidney / kynurenic acid level, Liver: ± standard error
Text: as §1, §2, §3
Male rats, in lots of five animals each, were treated i.p. with 250 mg/Kg IPA and were sacrificed at different times, evaluating the levels of kynurenic acid present in various organs.
The results are reported in picomoles/g±standard error.

Kidney homogenate = assay: Test 2: transformation into kynurenic acid in tissue homogenates (kidney); assay type: in vitro ADME, rats
Protocol: (§4) Male rats fasting for 16 hours were sacrificed and their organs were taken and homogenized in 5 volumes of 0,05 M phosphate buffer pH 7,4+0,14 M KCl.
(§5) Small amounts of homogenate (0,8 ml) were additioned with various amounts of 3-indolepyruvic acid or the derivatives thereof, dissolved into a buffer solution, and with a system for the production of free radicals, consisting of ascorbic acid (final 10^-5 M), FeCl3 (final 10^-6 M) and H2 O2 (final 10^-4 M). It was stirred at 37° C., then the reaction was blocked.

kynurenic acid [3] = assay: Test 3: effect on the content of kynurenic acid after administration of IPA in rat; assay type: in vivo; details: 3 hours, ± standard error
Brain homogenate = assay: Test 2: transformation into kynurenic acid in tissue homogenates (brain); assay type: in vitro ADME, rats; details: for Amount of kynurenic acid formed: brain homogenate
Protocol: as §4, §5

[4] = system: tryptophan and kynurenic acid in the brain of rats; details: rat, in vivo; for KYN/TRP × 10^3: ip, 250 mg/kg
Text: as §1, §2, §3
Male rats were treated with saline solution (controls), IPA or tryptophan i.p. one hour before sacrifice. Each lot was of six animals.
The reported values are in picomoles/g for kynurenic acid and picomoles/mg for tryptophan.

NMDA induced convulsions [5] = assay: Test 7: NMDA induced convulsions; assay type: in vivo, Mice of Albino Swiss strain
Protocol: Mice of Albino Swiss strain were treated with saline (controls) or with IPA (1 g/Kg i.p.) one hour before receiving a toxic dose of NMDA (154 mg/Kg i.p.).

[6] = Test 1: transformation of 3-indolepyruvic acid into kynurenic acid in vitro, within a non enzymatic system; assay type: physicochemical; details: from 2 mg, HCl 0,1 M, O2 and light
Protocol: When 3-indole pyruvic acid or a derivative thereof of formula 1 is incubated in a slightly acid solution (HCl 0,1 M), in the presence of oxidising agents (O2) and light, in time the formation of small amounts of kynurenic acid is observed. Particularly starting from 2 mg 3-indolepyruvic acid, 0,5 micrograms are obtained after 2 hours and 0,7 micrograms after 4 hours.

[7] = system: audiogenic convulsions in DBA2 mice; assay: Test 6: audiogenic convulsions in DBA2 mice; assay type: in vivo; details: for Animals with convulsions, % / Animals with convulsions: 200 mg/Kg intravenously, one hour before the test; for Animals with convulsions: number/total; for protective action against tonic convulsions induced by sound stimulations (in words): DBA2 mice
Protocol: To evaluate whether an increase in kynurenic acid in the brain after administration of IPA could have a protective action on neurons stressed by excitatory aminoacids, the experimental pattern of inducing convulsions in a particular strain of mice (DBA2) by selected sound stimulations was followed. […] The substances were injected intravenously one hour before the test. Then the number of animals showing tonic convulsions was measured.

NMDA induced convulsions [8] = details: cited from earlier work
excitatory aminoacids = details: cited from earlier work; for agonism of excitatory aminoacids (in words): central nervous system of mammals
[9] = system: audiogenic convulsions in DBA2 mice; details: known effect of kynurenic acid; cited from earlier work
[10] = 100 mg/Kg i.p., 3 hours, ± standard error
[11] = 250 mg.Kg i.p., 3 hours, ± standard error
[12] = 500 mg.Kg i.p., 3 hours, ± standard error
[13] = 1 g/Kg i.p. one hour before NMDA 154 mg/Kg i.p., number/total

SMILES: O=C(O)C(=O)Cc1c[nH]c2ccccc12 [3-indolepyruvic acid]
- stability (in words) (Stability): highly instable
- kynurenic acid content, Blood (kynurenic acid [1]; [10]): 62 ± 3 picomoles/ml of blood
- kynurenic acid content, Brain (kynurenic acid [1]; [10]): 24 ± 1 picomoles/g of tissue
- kynurenic acid content, Liver (kynurenic acid [1]; [10]): 240 ± 20 picomoles/g of tissue
- kynurenic acid content, Blood (kynurenic acid [1]; [11]): 164 ± 10 picomoles/ml of blood
- kynurenic acid content, Brain (kynurenic acid [1]; [11]): 32 ± 3 picomoles/g of tissue
- kynurenic acid content, Blood (kynurenic acid [1]; [12]): 442 ± 20 picomoles/ml of blood
- kynurenic acid content, Brain (kynurenic acid [1]; [12]): 110 ± 10 picomoles/g of tissue
- kynurenic acid in brain, times higher than the controls (kynurenic acid [1]; 500 mg/Kg): six
- increase in the levels of kynurenic acid in the tissues (in words) (kynurenic acid [1]): dose-dependent
- kynurenic acid levels over time in the organs (in words) (kynurenic acid [2]): high increase of kynurenic acid in all the organs under test (maximum in kidney). The levels remain high even after 4 hours from administration
- kynurenic acid level, Brain (kynurenic acid [2]; 1 hour): 39 ± 4 picomoles/g
- kynurenic acid level, Heart (kynurenic acid [2]; 1 hour): 181 ± 18 picomoles/g
- kynurenic acid level, Kidney (kynurenic acid [2]; 1 hour): 2593 ± 250 picomoles/g
- kynurenic acid level, Liver (kynurenic acid [2]; 1 hour): 827 ± 50 picomoles/g
- kynurenic acid level, Brain (kynurenic acid [2]; 2 hours): 32 ± 3 picomoles/g
- kynurenic acid level, Heart (kynurenic acid [2]; 2 hours): 177 ± 20 picomoles/g
- kynurenic acid level, Kidney (kynurenic acid [2]; 2 hours): 2395 ± 200 picomoles/g
- kynurenic acid level, Liver (kynurenic acid [2]; 2 hours): 464 ± 40 picomoles/g
- kynurenic acid level, Brain (kynurenic acid [2]; 3 hours): 38 ± 4 picomoles/g
- kynurenic acid level, Heart (kynurenic acid [2]; 3 hours): 104 ± 12 picomoles/g
- kynurenic acid level, Kidney (kynurenic acid [2]; 3 hours): 1480 ± 150 picomoles/g
- kynurenic acid level, Liver (kynurenic acid [2]; 3 hours): 235 ± 5 picomoles/g
- kynurenic acid level, Brain (kynurenic acid [2]; 4 hours): 28 ± 3 picomoles/g
- kynurenic acid level, Heart (kynurenic acid [2]; 4 hours): 100 ± 11 picomoles/g
- kynurenic acid level, Kidney (kynurenic acid [2]; 4 hours): 1200 ± 150 picomoles/g
- kynurenic acid level, Liver (kynurenic acid [2]; 4 hours): 122 ± 10 picomoles/g
- Amount of kynurenic acid formed (Kidney homogenate; final 0.8 mg, 30'): 160 ng
- Amount of kynurenic acid formed (Kidney homogenate; final 0.8 mg, 60'): 190 ng
- Amount of kynurenic acid formed (Kidney homogenate; final 0.8 mg, 120'): 208 ng
- Amount of kynurenic acid formed (Kidney homogenate; final 1.6 mg, 30'): 232 ng
- Amount of kynurenic acid formed (Kidney homogenate; final 1.6 mg, 60'): 280 ng
- Amount of kynurenic acid formed (Kidney homogenate; final 1.6 mg, 120'): 315 ng
- Amount of kynurenic acid formed (Kidney homogenate; final 4 mg, 30'): 185 ng
- Amount of kynurenic acid formed (Kidney homogenate; final 4 mg, 60'): 221 ng
- Amount of kynurenic acid formed (Kidney homogenate; final 4 mg, 120'): 270 ng
- kynurenic acid content, Blood (kynurenic acid [3]; 100 mg/Kg per os): 87 ± 8 picomoles/ml of blood
- kynurenic acid content, Brain (kynurenic acid [3]; 100 mg/Kg per os): 28 ± 2 picomoles/g of tissue
- kynurenic acid content, Liver (kynurenic acid [3]; 100 mg/Kg per os): 275 ± 25 picomoles/g of tissue
- kynurenic acid content, Liver (kynurenic acid [3]; 250 mg.Kg i.p.): 547 ± 35 picomoles/g of tissue
- kynurenic acid content, Blood (kynurenic acid [3]; 250 mg/Kg per os): 120 ± 12 picomoles/ml of blood
- kynurenic acid content, Brain (kynurenic acid [3]; 250 mg/Kg per os): 38 ± 3 picomoles/g of tissue
- kynurenic acid content, Liver (kynurenic acid [3]; 250 mg/Kg per os): 485 ± 40 picomoles/g of tissue
- kynurenic acid content, Liver (kynurenic acid [3]; 500 mg.Kg i.p.): 2860 ± 300 picomoles/g of tissue
- transformation into kynurenic acid in brain homogenate (in words) (Brain homogenate): able to transform into kynurenic acid in the brain
- Amount of kynurenic acid formed (Brain homogenate; 1.6 mg, 30'): 165 ng
- Amount of kynurenic acid formed (Brain homogenate; 1.6 mg, 60'): 280 ng
- Amount of kynurenic acid formed (Brain homogenate; 1.6 mg, 120'): 380 ng
- precursor of cerebral kynurenic acid (in words) [4]: selective precursor of cerebral kynurenic acid
- KYN/TRP × 10^3 [4]: 0.40
- Deaths (NMDA induced convulsions [5]; [13]): 3/9
- Tonic convulsions (NMDA induced convulsions [5]; [13]): 5/9
- protection against convulsions and death induced by NMDA (in words) (NMDA induced convulsions [5]; mouse, in vivo): able to protect mice against both convulsions and death induced by NMDA
- kynurenic acid obtained ([6]; after 2 hours): 0,5 micrograms
- kynurenic acid obtained ([6]; after 4 hours): 0,7 micrograms
- Animals with convulsions, % [7]: 33%
- Animals with convulsions [7]: 4/12
- protective action against tonic convulsions induced by sound stimulations (in words) [7]: good protective action

SMILES: COC(=O)C(=O)Cc1c[nH]c2ccccc12 [IPA-Methylester, 3-indolepyruvic acid methyl ester]
- Amount of kynurenic acid formed (Brain homogenate; amount not given, 30'): 48 ng
- Amount of kynurenic acid formed (Brain homogenate; amount not given, 60'): 65 ng
- Amount of kynurenic acid formed (Brain homogenate; amount not given, 120'): 83 ng

SMILES: COC(=O)C(Cc1ccccc1)NC(=O)C(=O)Cc1c[nH]c2ccccc12 (stereo not shown) [IPE-PHE-Ome, 3indolepyruvic acid phenylalanine methylester]
- Amount of kynurenic acid formed (Brain homogenate; amount not given, 30'): 75 ng
- Amount of kynurenic acid formed (Brain homogenate; amount not given, 60'): 82 ng
- Amount of kynurenic acid formed (Brain homogenate; amount not given, 120'): 92 ng

SMILES: COC(=O)C(Cc1ccc(O)cc1)NC(=O)C(=O)Cc1c[nH]c2ccccc12 (stereo not shown) [IPE-TYR-Ome, 3indolepyruvic acid tyrosine methylester]
- Amount of kynurenic acid formed (Brain homogenate; amount not given, 30'): 44 ng
- Amount of kynurenic acid formed (Brain homogenate; amount not given, 60'): 48 ng
- Amount of kynurenic acid formed (Brain homogenate; amount not given, 120'): 79 ng

SMILES: CN[C@H](CC(=O)O)C(=O)O [NMDA, N-methyl-D-aspartic acid]
- neurotoxic effect (in words) (NMDA induced convulsions [8]; activation of receptors of the excitatory aminoacids): powerful neurotoxic effect

SMILES: N[C@@H](Cc1c[nH]c2ccccc12)C(=O)O [Tryptophan, tryptophan, reference compound]
- increase in the levels of kynurenic acid in the tissues (in words) (kynurenic acid [1]): does not produce such an effect
- Amount of kynurenic acid formed (Kidney homogenate; final 1.6 mg, 30'): 55 ng
- Amount of kynurenic acid formed (Kidney homogenate; final 1.6 mg, 60'): 82 ng
- Amount of kynurenic acid formed (Kidney homogenate; final 1.6 mg, 120'): 111 ng
- transformation into kynurenic acid in brain homogenate (in words) (Brain homogenate): never transformed into kynurenic acid
- Amount of kynurenic acid formed (Brain homogenate; 1.6 mg, 30'): 0 ng
- Amount of kynurenic acid formed (Brain homogenate; 1.6 mg, 60'): 0 ng
- Amount of kynurenic acid formed (Brain homogenate; 1.6 mg, 120'): 0 ng
- KYN/TRP × 10^3 [4]: 0.16
- Animals with convulsions, % [7]: 80%
- Animals with convulsions [7]: 8/10
- protective action against tonic convulsions induced by sound stimulations (in words) [7]: no effective action

SMILES: O=C(O)c1cc(=O)c2ccccc2[nH]1 [kynurenic acid]
- inhibition of the excitatory effects of quinolinic acid, N-methyl-D-aspartate and other aminoacids (in words) (excitatory aminoacids): powerful inhibitor
- protection against the toxicity due to NMDA (in words) (NMDA induced convulsions [8]; well known effect of kynurenic acid): protects against the toxicity due to NMDA
- protection against audiogenic convulsions (in words) [9]: protective against convulsions

SMILES: Nc1ccccc1C(=O)CC(N)C(=O)O (stereo not shown) [kynurenine]
- agonism of excitatory aminoacids (in words) (excitatory aminoacids): powerful agonists of excitatory aminoacids

SMILES: O=C(O)c1cccnc1C(=O)O [quinolinic acid]
- agonism of excitatory aminoacids (in words) (excitatory aminoacids): powerful agonists of excitatory aminoacids
